From ChEMBL document CHEMBL4665708, “Generation of Stilbene Antimicrobials against Multiresistant Strains of Staphylococcus aureus through Biotransformation by the Enzymatic Secretome of Botrytis cinerea” (J Nat Prod, 2020)
≈ marks a conversion by molar mass, not a printed value. Calls of active or inactive are those of the source. The rule behind the calls is not given here.

Tests used:
Pseudomonas aeruginosa = assay: Antimicrobial activity against Pseudomonas aeruginosa ATCC 27853 at 256 ug/ml after 24 hrs by broth microdilution assay; type: functional, organism-based; details: dose 256.0 µg/ml
Staphylococcus aureus [1] = assay: Antimicrobial activity against methicillin-resistant Staphylococcus aureus ATCC 33591 after 24 hrs by broth microdilution method; type: functional
MCF-10A = assay: Cytotoxicity against human MCF-10A cells after 3 days by microplate reader analysis; type: cell-based; details: 72 h
[2] = Selectivity ratio of IC50 for human MCF-10A cells to MIC for methicillin-resistant Staphylococcus aureus ATCC 33591; type: toxicity
Staphylococcus aureus [3] = assay: Antimicrobial activity against vancomycin-resistant Staphylococcus aureus 510 after 24 hrs by broth microdilution method; type: functional
HepG2 = assay: Cytotoxicity against human HepG2 cells after 3 days by microplate reader analysis; type: cell-based; details: HepG2, 72 h
[4] = Selectivity ratio of IC50 for human MCF-10A cells to MIC for vancomyicin-resistant Staphylococcus aureus 510; type: toxicity

Compound	Activity (Pseudomonas aeruginosa)	MIC (Staphylococcus aureus [1]) [µM]	IC50 (MCF-10A) [µM]	selectivity ratio [2]	MIC (Staphylococcus aureus [3]) [µM]	IC50 (HepG2) [µM]	selectivity ratio [4]
Oc1ccc([C@@H]2c3c(O)cc(O)cc3[C@H]3[C@H](c4ccc(O)cc4)c4c(O)cc(O)cc4[C@@H]23)cc1 [PALLIDOL]	inactive	> 282	–	–	–	–	–
COc1cc(OC)cc([C@H]2c3cc(/C=C/c4cc(O)cc(O)c4)ccc3O[C@@H]2c2ccc(O)cc2)c1 (relative stereo)	inactive	4 (≈ 1.93 µg/mL)	29	7.2	4 (≈ 1.93 µg/mL)	27	7.2
COc1cc(OC)cc([C@@H](C(OC)OC)[C@@H](c2cc(O)cc(O)c2)C(c2ccc(O)cc2)c2ccc(O)cc2)c1	inactive	> 234	–	–	–	–	–
COc1cc(/C=C/c2ccc(OC(c3cc(O)cc(O)c3)C(OC)c3ccc(O)cc3)cc2)cc(OC)c1 (racemic)	inactive	8 (≈ 4.12 µg/mL)	27	3.4	4 (≈ 2.06 µg/mL)	23	6.9
COc1cc(OC)cc(C(C(OC)OC)C(c2cc(OC)cc(OC)c2)C(c2ccc(O)cc2)c2ccc(O)cc2)c1 (centres undefined)	inactive	14 (≈ 8.05 µg/mL)	19	1.4	–	19	–
COc1cc(OC)cc(C(Oc2ccc(/C=C/c3cc(O)cc(O)c3)cc2)C(OC)c2ccc(O)cc2)c1 (centres undefined)	inactive	62 (≈ 31.9 µg/mL)	23	0.4	–	29	–
COc1cc(/C=C/c2ccc(O)cc2)cc(OC)c1 [PTEROSTILBENE]	inactive	31 (≈ 7.95 µg/mL)	–	–	–	–	–
COc1cc(OC)c2c(c1)[C@@H]([C@@H](OC)c1ccc(O)cc1)[C@H](c1cc(O)cc(O)c1)[C@H]2c1ccc(O)cc1	inactive	> 249	–	–	–	–	–
COc1cc(OC)cc([C@@H]2[C@@H](c3ccc(O)cc3)c3c(O)cc(O)cc3[C@H]2[C@H](OC)c2ccc(O)cc2)c1	inactive	> 249	–	–	–	–	–
Oc1ccc([C@H]2Oc3ccc(/C=C/c4cc(O)cc(O)c4)cc3[C@@H]2c2cc(O)cc(O)c2)cc1 (relative stereo)	inactive	35 (≈ 15.9 µg/mL)	48	1.4	–	48	–
Oc1ccc(/C=C/c2cc(O)cc(O)c2)cc1 [RESVERATROL]	inactive	> 561	–	–	–	–	–
CN[C@H](CC(C)C)C(=O)N[C@H]1C(=O)N[C@@H](CC(N)=O)C(=O)N[C@H]2C(=O)N[C@H]3C(=O)N[C@H](C(=O)N[C@H](C(=O)O)c4cc(O)cc(O)c4-c4cc3ccc4O)[C@H](O)c3ccc(c(Cl)c3)Oc3cc2cc(c3O[C@@H]2O[C@H](CO)[C@@H](O)[C@H](O)[C@H]2O[C@H]2C[C@](C)(N)[C@H](O)[C@H](C)O2)Oc2ccc(cc2Cl)[C@H]1O [VANCOMYCIN]	inactive	0.69 (≈ 1 µg/mL)	–	–	22 (≈ 31.9 µg/mL)	–	–
COc1cc(/C=C/c2ccc3c(c2)[C@H](c2cc(OC)cc(OC)c2)[C@@H](c2ccc(O)cc2)O3)cc(OC)c1	inactive	> 251	25	< 0.1	–	29	–
COc1cc(OC)cc([C@@H]2[C@@H](c3ccc(O)cc3)c3c(O)cc(O)cc3[C@H]2C(O)c2ccc(O)cc2)c1 (some centres undefined)	inactive	> 256	–	–	–	–	–
COc1cc(OC)cc([C@@H]2[C@@H](c3cc(OC)cc(OC)c3)[C@H](c3ccc(O)cc3)O[C@@H]2c2ccc(O)cc2)c1	inactive	121 (≈ 64 µg/mL)	> 95	–	–	> 95	–
COc1cc(OC)c2c(c1)[C@H]1[C@H](c3ccc(O)cc3)c3c(OC)cc(OC)cc3[C@H]1[C@@H]2c1ccc(O)cc1	inactive	31 (≈ 15.8 µg/mL)	24	0.7	–	22	–
COC(c1ccc(O)cc1)[C@@H]1c2cc(O)cc(O)c2[C@H](c2ccc(O)cc2)[C@H]1c1cc(O)cc(O)c1 (some centres undefined)	inactive	> 263	–	–	–	–	–
COc1cc(OC)cc([C@@H]2[C@@H](c3ccc(O)cc3)c3c(OC)cc(OC)cc3[C@H]2[C@@H](O)c2ccc(O)cc2)c1	inactive	121 (≈ 64 µg/mL)	–	–	–	–	–
COc1cc(OC)cc([C@@H]2[C@@H](c3ccc(O)cc3)c3c(OC)cc(OC)cc3[C@H]2[C@H](O)c2ccc(O)cc2)c1	inactive	121 (≈ 64 µg/mL)	–	–	–	–	–
COc1cccc2c1C(=O)c1c(O)c3c(c(O)c1C2=O)C[C@@](O)(C(=O)CO)C[C@@H]3O[C@H]1C[C@H](N)[C@H](O)[C@H](C)O1 [DOXORUBICIN]	–	–	0.31	–	–	1.18	–
COc1cc(/C=C/c2ccc3c(c2)[C@H](c2cc(O)cc(O)c2)[C@@H](c2ccc(O)cc2)O3)cc(OC)c1	inactive	22 (≈ 10.6 µg/mL)	66	32	2 (≈ 0.965 µg/mL)	27	32
COc1cc(OC)cc([C@@H]2[C@@H](c3ccc(O)cc3)c3c(OC)cc(OC)cc3[C@H]2[C@@H](OC)c2ccc(O)cc2)c1	inactive	15 (≈ 8.14 µg/mL)	17	1.1	–	15	–
COc1cc(/C=C/c2ccc(OC(c3cc(OC)cc(OC)c3)C(O)c3ccc(O)cc3)cc2)cc(OC)c1 (centres undefined)	inactive	> 242	–	–	–	–	–
COc1cc(OC)cc([C@@H]2[C@@H](c3ccc(O)cc3)c3c(O)cc(O)cc3[C@H]2[C@@H](OC)c2ccc(O)cc2)c1	inactive	> 249	–	–	–	–	–
